The record followed here is ChEMBL document CHEMBL5465560, “Selectivity Literature for EUbOPEN Chemogenomic Library” (2024).

Molecules are shown by their SMILES.

Series [1] has as its target Mitogen-activated protein kinase 9 (Homo sapiens, UniProt P45984). Description: Selectivity interaction (LanthaScreen Eu Kinase Binding Assay) EUB0001632a MAPK9. As to conditions: at 10 µM.
Series [2] concerns the target Tyrosine-protein kinase receptor UFO (Homo sapiens) (UniProt P30530). In words: Selectivity interaction (SelectScreen profiling (Invitrogen)) EUB0000607a AXL. As to conditions: at 2 µM.
In series [3] the target is Vascular endothelial growth factor receptor 2 (Homo sapiens, UniProt P35968). In words: Selectivity interaction (KinomeScan (DiscoverX)) EUB0000607a KDR. As to conditions: at 10 µM.
Vascular endothelial growth factor receptor 2, sequence (P35968 whole entry): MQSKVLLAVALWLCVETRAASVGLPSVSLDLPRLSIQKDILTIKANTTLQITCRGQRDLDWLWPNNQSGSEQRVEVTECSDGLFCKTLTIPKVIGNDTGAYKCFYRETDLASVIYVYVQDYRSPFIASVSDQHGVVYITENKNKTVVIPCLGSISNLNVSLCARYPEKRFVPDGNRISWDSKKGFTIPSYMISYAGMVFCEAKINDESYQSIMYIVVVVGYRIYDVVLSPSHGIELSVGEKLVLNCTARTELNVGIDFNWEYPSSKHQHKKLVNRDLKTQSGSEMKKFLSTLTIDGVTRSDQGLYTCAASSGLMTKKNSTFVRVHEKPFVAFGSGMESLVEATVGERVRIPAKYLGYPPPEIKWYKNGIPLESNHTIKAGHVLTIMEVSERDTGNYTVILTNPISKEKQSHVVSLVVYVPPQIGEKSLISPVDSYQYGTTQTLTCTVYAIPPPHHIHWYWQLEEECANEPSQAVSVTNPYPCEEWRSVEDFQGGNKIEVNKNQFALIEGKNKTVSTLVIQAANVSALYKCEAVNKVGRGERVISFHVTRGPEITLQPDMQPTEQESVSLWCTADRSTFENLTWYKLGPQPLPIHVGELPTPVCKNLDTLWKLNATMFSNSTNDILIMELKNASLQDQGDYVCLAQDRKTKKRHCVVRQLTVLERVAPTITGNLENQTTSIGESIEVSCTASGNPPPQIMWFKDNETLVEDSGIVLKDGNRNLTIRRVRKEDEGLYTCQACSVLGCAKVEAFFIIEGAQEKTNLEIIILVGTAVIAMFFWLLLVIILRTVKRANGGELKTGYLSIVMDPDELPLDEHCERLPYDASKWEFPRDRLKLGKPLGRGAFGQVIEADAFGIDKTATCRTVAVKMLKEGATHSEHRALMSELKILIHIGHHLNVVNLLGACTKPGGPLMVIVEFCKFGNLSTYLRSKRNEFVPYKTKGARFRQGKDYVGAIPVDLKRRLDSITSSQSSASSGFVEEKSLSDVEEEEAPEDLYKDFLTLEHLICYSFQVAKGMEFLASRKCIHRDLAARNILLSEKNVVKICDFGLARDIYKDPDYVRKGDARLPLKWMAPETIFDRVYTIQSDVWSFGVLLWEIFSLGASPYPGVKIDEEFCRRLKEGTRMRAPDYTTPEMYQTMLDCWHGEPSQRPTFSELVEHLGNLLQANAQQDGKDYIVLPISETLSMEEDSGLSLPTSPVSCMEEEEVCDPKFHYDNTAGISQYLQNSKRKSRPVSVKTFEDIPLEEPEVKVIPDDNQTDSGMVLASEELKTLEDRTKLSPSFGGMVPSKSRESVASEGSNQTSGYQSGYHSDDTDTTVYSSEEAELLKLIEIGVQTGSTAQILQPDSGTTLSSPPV
Series [4] addresses Receptor-interacting serine/threonine-protein kinase 2 (Homo sapiens, UniProt O43353). The note with it: at 10 µM.
Series [5] concerns the target T1, MAP/microtubule affinity-regulating kinase 4 (Homo sapiens) (UniProt Q96L34).
T1 sequence (whole entry): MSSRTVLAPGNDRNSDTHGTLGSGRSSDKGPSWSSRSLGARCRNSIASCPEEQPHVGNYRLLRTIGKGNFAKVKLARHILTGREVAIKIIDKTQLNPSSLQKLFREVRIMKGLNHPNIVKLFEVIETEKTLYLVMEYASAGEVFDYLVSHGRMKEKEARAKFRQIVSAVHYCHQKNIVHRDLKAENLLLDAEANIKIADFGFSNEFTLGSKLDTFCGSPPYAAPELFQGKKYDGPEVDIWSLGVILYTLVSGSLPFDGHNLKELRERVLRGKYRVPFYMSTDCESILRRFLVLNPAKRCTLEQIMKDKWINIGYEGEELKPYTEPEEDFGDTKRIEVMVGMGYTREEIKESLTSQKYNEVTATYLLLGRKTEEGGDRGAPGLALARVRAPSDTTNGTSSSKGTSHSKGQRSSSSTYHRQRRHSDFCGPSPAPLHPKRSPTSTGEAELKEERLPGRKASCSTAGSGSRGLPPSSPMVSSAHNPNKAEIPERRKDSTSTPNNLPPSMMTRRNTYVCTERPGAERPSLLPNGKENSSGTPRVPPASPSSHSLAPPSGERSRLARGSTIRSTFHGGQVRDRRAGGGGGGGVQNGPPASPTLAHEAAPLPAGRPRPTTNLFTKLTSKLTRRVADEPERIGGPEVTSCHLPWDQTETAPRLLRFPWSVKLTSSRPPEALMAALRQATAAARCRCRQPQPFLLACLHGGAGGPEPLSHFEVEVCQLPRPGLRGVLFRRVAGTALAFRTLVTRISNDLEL
The note with it: at 10 µM.

In series [6] the target is Serine/threonine-protein kinase MARK2 (Homo sapiens) (UniProt Q7KZI7). Description: Selectivity interaction (Kinase screening (Nanosyn)) EUB0000604a MARK2.
Serine/threonine-protein kinase MARK2 (Homo sapiens), sequence (Q7KZI7 whole entry): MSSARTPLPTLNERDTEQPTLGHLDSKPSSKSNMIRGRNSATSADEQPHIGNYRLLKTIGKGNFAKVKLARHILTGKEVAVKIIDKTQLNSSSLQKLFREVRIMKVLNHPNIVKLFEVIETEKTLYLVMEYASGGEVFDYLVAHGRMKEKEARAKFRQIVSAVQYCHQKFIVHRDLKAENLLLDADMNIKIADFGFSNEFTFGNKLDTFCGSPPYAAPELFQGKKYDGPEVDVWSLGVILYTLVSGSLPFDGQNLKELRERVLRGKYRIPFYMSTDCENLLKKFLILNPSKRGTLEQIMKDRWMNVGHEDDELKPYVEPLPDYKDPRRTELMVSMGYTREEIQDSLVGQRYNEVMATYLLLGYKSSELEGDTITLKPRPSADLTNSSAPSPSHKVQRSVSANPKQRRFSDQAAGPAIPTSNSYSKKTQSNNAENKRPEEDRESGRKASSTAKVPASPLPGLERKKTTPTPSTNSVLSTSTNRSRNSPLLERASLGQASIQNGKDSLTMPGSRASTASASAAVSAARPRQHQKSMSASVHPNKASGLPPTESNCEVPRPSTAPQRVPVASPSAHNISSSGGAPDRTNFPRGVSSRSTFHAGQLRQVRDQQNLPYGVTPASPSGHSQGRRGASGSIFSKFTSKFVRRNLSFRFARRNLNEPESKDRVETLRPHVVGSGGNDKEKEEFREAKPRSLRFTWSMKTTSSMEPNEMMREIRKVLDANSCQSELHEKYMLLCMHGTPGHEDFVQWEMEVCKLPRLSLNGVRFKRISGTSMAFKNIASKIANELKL
In series [7] the target is Serine/threonine-protein kinase 16 (Homo sapiens, UniProt O75716). In words: Selectivity interaction (ActivX KiNativ screen (kinase selectivity in THP-1 cell lysates)) EUB0000639a STK16. The note with it: lysate, at 5 µM. It counts as subcellular.
Serine/threonine-protein kinase 16, sequence (O75716 whole entry): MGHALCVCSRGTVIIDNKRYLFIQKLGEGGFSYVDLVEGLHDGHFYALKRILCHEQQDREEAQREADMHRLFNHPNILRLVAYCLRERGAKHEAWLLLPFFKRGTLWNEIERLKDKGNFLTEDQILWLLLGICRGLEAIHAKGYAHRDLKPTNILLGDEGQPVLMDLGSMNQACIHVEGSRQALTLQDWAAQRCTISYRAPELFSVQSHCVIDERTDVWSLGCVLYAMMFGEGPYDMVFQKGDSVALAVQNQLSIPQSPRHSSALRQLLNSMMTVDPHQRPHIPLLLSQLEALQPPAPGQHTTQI
For series [8], the target named is T2, Non-receptor tyrosine-protein kinase TYK2 (Homo sapiens, UniProt P29597). In words: Selectivity interaction (ActivX KiNativ screen (kinase selectivity in THP-1 cell lysates)) EUB0000639a TYK2. It counts as subcellular. The note with it: lysate.
T2 sequence (P29597 whole entry): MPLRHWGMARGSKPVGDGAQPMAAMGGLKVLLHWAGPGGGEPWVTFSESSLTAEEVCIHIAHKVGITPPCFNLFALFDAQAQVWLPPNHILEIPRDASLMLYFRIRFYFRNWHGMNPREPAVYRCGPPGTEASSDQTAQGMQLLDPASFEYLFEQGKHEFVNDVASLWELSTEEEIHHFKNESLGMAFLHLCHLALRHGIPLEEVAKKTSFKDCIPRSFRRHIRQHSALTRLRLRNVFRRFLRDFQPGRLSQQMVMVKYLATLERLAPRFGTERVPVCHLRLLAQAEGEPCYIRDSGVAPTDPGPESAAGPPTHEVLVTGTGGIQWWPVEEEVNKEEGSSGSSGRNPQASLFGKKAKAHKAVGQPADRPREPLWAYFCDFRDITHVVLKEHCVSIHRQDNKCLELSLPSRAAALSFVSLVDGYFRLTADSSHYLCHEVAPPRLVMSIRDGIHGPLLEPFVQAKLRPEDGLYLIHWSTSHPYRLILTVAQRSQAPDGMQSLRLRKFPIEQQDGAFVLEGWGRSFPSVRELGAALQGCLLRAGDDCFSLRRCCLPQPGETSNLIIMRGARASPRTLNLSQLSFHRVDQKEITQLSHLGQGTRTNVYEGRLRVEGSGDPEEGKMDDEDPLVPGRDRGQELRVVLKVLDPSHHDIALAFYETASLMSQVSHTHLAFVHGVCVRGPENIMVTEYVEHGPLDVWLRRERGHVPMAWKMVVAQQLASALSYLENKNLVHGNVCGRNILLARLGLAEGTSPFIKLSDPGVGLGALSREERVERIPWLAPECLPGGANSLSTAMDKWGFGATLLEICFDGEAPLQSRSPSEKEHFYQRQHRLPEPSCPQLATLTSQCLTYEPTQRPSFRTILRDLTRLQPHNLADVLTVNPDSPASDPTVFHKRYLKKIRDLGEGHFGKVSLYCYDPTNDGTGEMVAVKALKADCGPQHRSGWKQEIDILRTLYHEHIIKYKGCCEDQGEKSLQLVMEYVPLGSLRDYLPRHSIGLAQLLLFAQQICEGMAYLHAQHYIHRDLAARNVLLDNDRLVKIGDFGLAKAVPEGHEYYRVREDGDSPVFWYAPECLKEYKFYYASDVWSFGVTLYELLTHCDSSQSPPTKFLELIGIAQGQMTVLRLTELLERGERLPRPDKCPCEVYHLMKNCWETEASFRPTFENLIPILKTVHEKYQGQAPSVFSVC
Series [9] has as its target T2, Non-receptor tyrosine-protein kinase TYK2. In words: Selectivity interaction (Kinase panel (Invitrogen)) EUB0000639a TYK2. As to conditions: at 200 nM.
Series [10] addresses Tyrosine-protein kinase Blk (Homo sapiens) (UniProt P51451). In words: Selectivity interaction (ProQinase) EUB0000171b BLK.
In series [11] the target is MAO-B (MAOB) (Homo sapiens, UniProt P27338). Description: Selectivity interaction (Panel of kinases, GPCRs, ion channels and transporters (enzymatic assay)) EUB0000223bCl MAOB.
Series [12] addresses T3, Dual specificity mitogen-activated protein kinase kinase 3 (Homo sapiens) (UniProt P46734).
T3 sequence (whole entry): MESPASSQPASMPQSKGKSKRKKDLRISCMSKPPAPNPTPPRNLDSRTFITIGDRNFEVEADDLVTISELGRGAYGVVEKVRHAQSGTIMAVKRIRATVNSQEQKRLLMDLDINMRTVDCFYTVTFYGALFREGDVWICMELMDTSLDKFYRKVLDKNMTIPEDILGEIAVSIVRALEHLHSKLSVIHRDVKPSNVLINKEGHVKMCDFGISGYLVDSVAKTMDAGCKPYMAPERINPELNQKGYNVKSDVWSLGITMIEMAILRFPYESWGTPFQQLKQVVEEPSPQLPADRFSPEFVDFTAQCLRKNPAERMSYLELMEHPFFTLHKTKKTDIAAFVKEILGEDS
Description: Selectivity interaction (KinomeScan (DiscoverX)) EUB0000618a MAP2K3. As to conditions: at 10 µM.

The target in series [13] is Misshapen-like kinase 1 (Homo sapiens, UniProt Q8N4C8). In words: Selectivity interaction (KinomeScan (DiscoverX)) EUB0000618a MINK1. The note with it: at 10 µM.
Series [14] addresses T4, Serine/threonine-protein kinase STK11 (Homo sapiens) (UniProt Q15831).
T4 sequence (whole entry): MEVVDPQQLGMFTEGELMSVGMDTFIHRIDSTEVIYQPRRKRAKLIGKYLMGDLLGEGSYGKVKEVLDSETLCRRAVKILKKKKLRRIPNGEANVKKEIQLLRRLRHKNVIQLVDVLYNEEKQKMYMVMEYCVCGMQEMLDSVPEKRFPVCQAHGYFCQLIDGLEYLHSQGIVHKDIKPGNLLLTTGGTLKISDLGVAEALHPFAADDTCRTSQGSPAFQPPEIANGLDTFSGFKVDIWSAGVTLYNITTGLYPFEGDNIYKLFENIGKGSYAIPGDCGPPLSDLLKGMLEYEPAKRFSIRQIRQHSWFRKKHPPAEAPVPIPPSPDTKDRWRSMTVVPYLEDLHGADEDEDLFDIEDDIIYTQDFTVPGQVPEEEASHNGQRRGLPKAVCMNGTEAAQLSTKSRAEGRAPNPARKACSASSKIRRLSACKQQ
Description: Selectivity interaction (KinomeScan (DiscoverX)) EUB0000618a STK11. As to conditions: at 10 µM.

Series [15] concerns the target Serine/threonine-protein kinase VRK2 (Homo sapiens) (UniProt Q86Y07). In words: Selectivity interaction (KinomeScan (DiscoverX)) EUB0000092b VRK2. The note with it: at 10 µM.

Tyrosine-protein kinase Blk (Homo sapiens), sequence (P51451 2-505 limits assumed): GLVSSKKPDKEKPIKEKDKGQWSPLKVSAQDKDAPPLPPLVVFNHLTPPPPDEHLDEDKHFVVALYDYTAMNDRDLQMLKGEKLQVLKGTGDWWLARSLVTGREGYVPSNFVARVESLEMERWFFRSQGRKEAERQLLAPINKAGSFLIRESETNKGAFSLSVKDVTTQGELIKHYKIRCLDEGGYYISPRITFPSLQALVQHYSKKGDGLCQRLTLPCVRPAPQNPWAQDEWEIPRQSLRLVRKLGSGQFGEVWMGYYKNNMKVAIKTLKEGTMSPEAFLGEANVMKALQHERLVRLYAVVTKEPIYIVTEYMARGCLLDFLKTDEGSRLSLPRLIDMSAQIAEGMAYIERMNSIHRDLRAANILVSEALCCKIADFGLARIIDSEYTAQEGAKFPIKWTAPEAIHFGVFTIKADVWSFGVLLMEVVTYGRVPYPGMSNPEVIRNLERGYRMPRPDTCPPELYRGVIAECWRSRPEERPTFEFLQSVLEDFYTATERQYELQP
Mitogen-activated protein kinase 9, sequence (P45984 whole entry, looked up): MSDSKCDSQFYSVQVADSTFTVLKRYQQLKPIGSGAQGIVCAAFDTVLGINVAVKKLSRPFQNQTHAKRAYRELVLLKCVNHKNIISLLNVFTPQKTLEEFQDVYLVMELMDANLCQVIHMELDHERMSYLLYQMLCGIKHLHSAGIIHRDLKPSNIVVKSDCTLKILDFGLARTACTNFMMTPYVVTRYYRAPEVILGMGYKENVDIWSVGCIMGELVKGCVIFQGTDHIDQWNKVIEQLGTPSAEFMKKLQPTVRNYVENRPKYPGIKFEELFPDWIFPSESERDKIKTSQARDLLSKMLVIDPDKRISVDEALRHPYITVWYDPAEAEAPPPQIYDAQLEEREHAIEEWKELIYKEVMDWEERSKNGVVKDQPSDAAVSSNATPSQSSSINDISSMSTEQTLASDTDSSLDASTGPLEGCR
Serine/threonine-protein kinase VRK2 (Homo sapiens), sequence (Q86Y07 whole entry): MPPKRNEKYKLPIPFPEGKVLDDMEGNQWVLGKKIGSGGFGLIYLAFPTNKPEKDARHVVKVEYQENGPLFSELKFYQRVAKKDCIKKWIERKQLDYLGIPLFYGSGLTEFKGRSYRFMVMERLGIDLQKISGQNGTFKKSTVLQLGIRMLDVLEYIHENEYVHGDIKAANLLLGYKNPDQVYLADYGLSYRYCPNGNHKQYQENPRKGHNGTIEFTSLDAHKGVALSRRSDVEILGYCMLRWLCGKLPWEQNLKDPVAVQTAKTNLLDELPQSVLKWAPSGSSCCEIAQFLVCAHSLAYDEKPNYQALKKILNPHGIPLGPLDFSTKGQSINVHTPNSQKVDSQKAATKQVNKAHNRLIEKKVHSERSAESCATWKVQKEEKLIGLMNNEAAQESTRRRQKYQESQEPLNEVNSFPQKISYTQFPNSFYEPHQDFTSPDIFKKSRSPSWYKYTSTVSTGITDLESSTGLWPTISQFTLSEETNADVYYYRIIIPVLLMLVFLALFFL

As to `Cn1cc(-n2cnc3c(NCc4nc5cc(Cl)c(Cl)cc5[nH]4)nc(N4CCOCC4)nc32)cn1`, the % of inhibition in series [1] was -21.2%.

Turning to `CNC(=O)Nc1ccc(-c2nc(N3CC4CCC(C3)O4)c3cnn(C4CCC5(CC4)OCCO5)c3n2)cc1`, in series [2], the % of inhibition came out at 2%. This compound also registered a % of control in series [3] of 76%.

Turning to `Cc1cc([C@@H](C)Nc2ccccc2C(=O)O)c2nc(N3CCOCC3)cc(=O)n2c1` [AZD-6482], the % of control in series [4] came to 94%; in series [5] it was 100%.

For the compound `Cc1cnc(Nc2ccc(F)cc2Cl)nc1-c1c[nH]c(C(=O)N[C@H](CO)c2cccc(Cl)c2)c1`, in series [6], the % of inhibition was found to be 5%.

Turning to `CC[C@@H]1[C@H](F)C(=O)N[C@@H]1COc1nccc2cc(C(N)=O)c(OC)cc12` [ZIMLOVISERTIB], the % of inhibition in [7] amounted to 81.9%; in series [8] (at 0.01 µM) it was 1.5%; in [8] (at 0.04 µM), 4%; in series [8] (at 0.2 µM), 2.3%; in [8] (at 1 µM) it was 12.6%; in series [8] (at 5 µM), 19.4%. Besides, the % of inhibition in series [9] worked out at 5.13%.

For `C=CC(=O)Nc1cccc(C(=O)Nc2ccc(Nc3cc(-c4[nH]c(SC)nc4C)ccn3)cc2)c1`, the % of control was 77% in series [10] (at 1 µM) and 81% in series [10] (at 5 µM).

For the compound `COc1cc(C(=O)N2CC[C@@H](O)[C@@H](N)C2)cc2nc(-c3cc4ccccc4n3CC3CC3)n(C)c12`, in [11], the XC50 was 15.8 µM.

For `O[C@H]1CC[C@H](Nc2ncc3nc(Nc4c(F)cc(F)cc4F)n([C@H]4CCOC4)c3n2)CC1`, the % of control in [12] amounted to 43%; in [13], 71%; in series [14], 100%.

The compound `CCC(=O)N1CCN(c2ccc(-n3c(=O)ccc4cnc5ccc(-c6cnc7ccccc7c6)cc5c43)cc2C(F)(F)F)CC1` returned a % of control in series [15] of 100%.
